Laboratory results reported in PubChem BioAssay AID248 (DTP/NCI, 2004).
Toxic doses and inconclusive results are not listed. Rule as the data show it: active = T/C of 150% or more; inactive = T/C below 125%.

System: L1210 leukemia ip in BDF1 mice, survival T/C
Assay: NCI In Vivo Anticancer Drug Screen. Data for tumor model L1210 Leukemia (intraperitoneal) in B6D2F1 (BDF1) mice
Conditions: endpoint: mean survival time, higher = longer survival
Method in brief: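 Transplantable tumor model; survival measured in treated vs vehicle control mice. Value = treated/control.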

[1] = dose: 100.0 mg/kg/injection, schedule: Q01DX001 (ip), vehicle: saline
[2] = dose: 200.0 mg/kg/injection, schedule: Q01DX001 (ip), vehicle: saline
[3] = dose: 400.0 mg/kg/injection, schedule: Q01DX001 (ip), vehicle: saline
[4] = dose: 200.0 mg/kg/injection, schedule: Q04DX003 (ip), vehicle: saline with Tween-80
[5] = dose: 25.0 mg/kg/injection, schedule: Q04DX002 (ip), vehicle: Klucel (hydroxypropylcellulose) (HPC)
[6] = dose: 50.0 mg/kg/injection, schedule: Q04DX002 (ip), vehicle: Klucel (hydroxypropylcellulose) (HPC)
[7] = dose: 100.0 mg/kg/injection, schedule: Q01DX001 (ip), vehicle: saline with Tween-80

Measured: T/C

Cc1ccc(C(C)C)c(OC(=O)Nc2ccc(S(=O)(=O)NC3CCCCC3)cc2)c1
inactive: [1] 94 % of control | [2] 96 % of control | [3] 94 % of control

O=c1ccnc([Se])[nH]1
inactive: dose: 12.5 mg/kg/injection, schedule: Q04DX003 (ip), vehicle: saline with Tween-80 99 % of control | dose: 25.0 mg/kg/injection, schedule: Q04DX003 (ip), vehicle: saline with Tween-80 105 % of control | dose: 50.0 mg/kg/injection, schedule: Q04DX003 (ip), vehicle: saline with Tween-80 101 % of control | dose: 100.0 mg/kg/injection, schedule: Q04DX003 (ip), vehicle: saline with Tween-80 92 % of control | [4] 111 % of control | dose: 400.0 mg/kg/injection, schedule: Q04DX003 (ip), vehicle: saline with Tween-80 101 % of control

O=C(Cc1ccccc1)Nc1cccnc1
inactive: dose: 75.0 mg/kg/injection, schedule: Q04DX003 (ip), vehicle: Klucel (hydroxypropylcellulose) (HPC) 102 % of control | dose: 100.0 mg/kg/injection, schedule: Q01DX001 (ip), vehicle: Klucel (hydroxypropylcellulose) (HPC) 97 % of control | dose: 150.0 mg/kg/injection, schedule: Q04DX003 (ip), vehicle: Klucel (hydroxypropylcellulose) (HPC) 114 % of control | dose: 200.0 mg/kg/injection, schedule: Q01DX001 (ip), vehicle: Klucel (hydroxypropylcellulose) (HPC) 103 % of control | dose: 300.0 mg/kg/injection, schedule: Q04DX003 (ip), vehicle: Klucel (hydroxypropylcellulose) (HPC) 104 % of control | dose: 400.0 mg/kg/injection, schedule: Q01DX001 (ip), vehicle: Klucel (hydroxypropylcellulose) (HPC) 92 % of control

CCCCOP(=O)(OCCCC)Oc1c(Cl)c(Cl)c(Cl)c(Cl)c1Cl
inactive: dose: 100.0 mg/kg/injection, schedule: Q04DX002 (sc), vehicle: olive oil, sesame oil, peanut oil 107 % of control | dose: 200.0 mg/kg/injection, schedule: Q04DX002 (sc), vehicle: olive oil, sesame oil, peanut oil 100 % of control | dose: 400.0 mg/kg/injection, schedule: Q04DX002 (sc), vehicle: olive oil, sesame oil, peanut oil 104 % of control

CCN(CC)CCN(CC)C(=O)C1C(c2ccccc2)C1c1ccccc1 (stereo unspecified)
inactive: [5] 102 % of control | [6] 102 % of control

CC(=O)N/N=C(/C)c1cccs1
inactive: [1] 103 % of control | [2] 109 % of control | [3] 100 % of control

CC(C)(C)[Si](O)C(C)(C)C
inactive: dose: 75.0 mg/kg/injection, schedule: Q01DX001 (ip), vehicle: saline 91 % of control | dose: 150.0 mg/kg/injection, schedule: Q01DX001 (ip), vehicle: saline 98 % of control | dose: 300.0 mg/kg/injection, schedule: Q01DX001 (ip), vehicle: saline 96 % of control

CCCCCCCCCCCCCCCCSSCCCCCCCCCCCCCCCC
inactive: dose: 100.0 mg/kg/injection, schedule: Q01DX001 (ip), vehicle: carboxymethylcellulose (CMC) 93 % of control | dose: 100.0 mg/kg/injection, schedule: Q01DX009 (ip), vehicle: saline with Tween-80 92 % of control | dose: 200.0 mg/kg/injection, schedule: Q01DX001 (ip), vehicle: carboxymethylcellulose (CMC) 95 % of control | dose: 200.0 mg/kg/injection, schedule: Q01DX009 (ip), vehicle: saline with Tween-80 95 % of control | dose: 400.0 mg/kg/injection, schedule: Q01DX001 (ip), vehicle: carboxymethylcellulose (CMC) 95 % of control | dose: 400.0 mg/kg/injection, schedule: Q01DX009 (ip), vehicle: saline with Tween-80 87 % of control

CC1(C)C(=C(C#N)C#N)C(C)(C)C1=C(C#N)C#N
inactive: [1] 114 % of control | [2] 96 % of control | [3] 90 % of control

COc1cccc2c1C(=O)c1c(O)c3c(c(O)c1C2=O)C[C@@](O)(C(C)=O)C[C@@H]3OC1CC(NC(=S)Nc2ccc(F)cc2)C(O)C(C)O1 (stereo partly specified)
inactive: dose: 0.25 mg/kg/injection, schedule: Q04DX003 (ip), vehicle: other 100 % of control | dose: 0.5 mg/kg/injection, schedule: Q04DX003 (ip), vehicle: other 98 % of control | dose: 1.0 mg/kg/injection, schedule: Q04DX003 (ip), vehicle: other 104 % of control | dose: 2.0 mg/kg/injection, schedule: Q04DX003 (ip), vehicle: other 100 % of control | dose: 4.0 mg/kg/injection, schedule: Q04DX003 (ip), vehicle: other 112 % of control | dose: 6.0 mg/kg/injection, schedule: Q01DX009 (ip), vehicle: water 111 % of control | dose: 8.0 mg/kg/injection, schedule: Q04DX003 (ip), vehicle: other 112 % of control | dose: 12.0 mg/kg/injection, schedule: Q01DX009 (ip), vehicle: water 114 % of control | dose: 14.0 mg/kg/injection, schedule: Q04DX003 (ip), vehicle: water 108 % of control | dose: 16.0 mg/kg/injection, schedule: Q04DX003 (ip), vehicle: other 109 % of control | dose: 21.0 mg/kg/injection, schedule: Q04DX003 (ip), vehicle: water 108 % of control | dose: 23.0 mg/kg/injection, schedule: Q01DX009 (ip), vehicle: water 108 % of control | dose: 24.0 mg/kg/injection, schedule: Q01DX009 (ip), vehicle: water 116 % of control | dose: 39.0 mg/kg/injection, schedule: Q01DX009 (ip), vehicle: water 109 % of control | dose: 48.0 mg/kg/injection, schedule: Q01DX009 (ip), vehicle: water 122 % of control | dose: 50.0 mg/kg/injection, schedule: Q04DX003 (ip), vehicle: water 120 % of control | dose: 65.0 mg/kg/injection, schedule: Q01DX009 (ip), vehicle: water 109 % of control | dose: 108.0 mg/kg/injection, schedule: Q01DX009 (ip), vehicle: water 119 % of control | dose: 180.0 mg/kg/injection, schedule: Q01DX009 (ip), vehicle: water 104 % of control

NC(CCl)=NCC1CCCCCC1
inactive: [5] 107 % of control | [6] 100 % of control | dose: 100.0 mg/kg/injection, schedule: Q04DX002 (ip), vehicle: Klucel (hydroxypropylcellulose) (HPC) 101 % of control

CCOC(=O)c1cnc(NN)nc1Nc1cc(Cl)cc(Cl)c1
inactive: [4] 90 % of control

Cc1nc2ccc(-c3ccccc3)cc2s1
inactive: [7] 111 % of control | dose: 200.0 mg/kg/injection, schedule: Q01DX001 (ip), vehicle: saline with Tween-80 108 % of control | dose: 400.0 mg/kg/injection, schedule: Q01DX001 (ip), vehicle: saline with Tween-80 103 % of control

NNCCC(=O)O
inactive: [1] 107 % of control | [2] 102 % of control | [3] 115 % of control

CC(=O)c1cccc(N=C=O)c1
inactive: dose: 25.0 mg/kg/injection, schedule: Q01DX001 (ip), vehicle: saline with Tween-80 101 % of control | dose: 50.0 mg/kg/injection, schedule: Q01DX001 (ip), vehicle: saline with Tween-80 93 % of control | [7] 111 % of control

O=C(N/N=C/c1ccc(O)cc1O)c1cccc2ccccc12
inactive: [1] 92 % of control | [2] 100 % of control | [3] 92 % of control

Cc1ccc(NC(=O)c2cc3ccccc3cc2O)c(C)c1
inactive: dose: 100.0 mg/kg/injection, schedule: Q01DX001 (ip), vehicle: other 92 % of control | dose: 100.0 mg/kg/injection, schedule: Q04DX003 (ip), vehicle: Klucel (hydroxypropylcellulose) (HPC) 100 % of control | dose: 200.0 mg/kg/injection, schedule: Q01DX001 (ip), vehicle: other 92 % of control | dose: 200.0 mg/kg/injection, schedule: Q04DX003 (ip), vehicle: Klucel (hydroxypropylcellulose) (HPC) 94 % of control | dose: 400.0 mg/kg/injection, schedule: Q01DX001 (ip), vehicle: other 92 % of control | dose: 400.0 mg/kg/injection, schedule: Q04DX003 (ip), vehicle: Klucel (hydroxypropylcellulose) (HPC) 105 % of control
